Structures are written as SMILES.

For this assay, the target named is human LPA1 receptor (Homo sapiens (Human), UniProt Q92633). As to the kind of experiment: Beta-arrestin recruitment assay to determine IC50 values for human LPAR1. The assay is classed as cell-based. The note with it: antagonist mode, Tango EDG2-bla U2OS cells, LPA 18:1 500 nM final. The method, boiled down: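 Antagonist IC50 = concentration giving 50% inhibition of maximal LPA response. Read-out is beta-lactamase reporter activity after arrestin-protease recruitment in U2OS cells bearing LPA1-TEV-Gal4-VP16 construct; cells pre-incubated 20 h, 37 °C, 5% CO2.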
human LPA1 receptor, sequence (Q92633 whole entry, the tested form may be a part): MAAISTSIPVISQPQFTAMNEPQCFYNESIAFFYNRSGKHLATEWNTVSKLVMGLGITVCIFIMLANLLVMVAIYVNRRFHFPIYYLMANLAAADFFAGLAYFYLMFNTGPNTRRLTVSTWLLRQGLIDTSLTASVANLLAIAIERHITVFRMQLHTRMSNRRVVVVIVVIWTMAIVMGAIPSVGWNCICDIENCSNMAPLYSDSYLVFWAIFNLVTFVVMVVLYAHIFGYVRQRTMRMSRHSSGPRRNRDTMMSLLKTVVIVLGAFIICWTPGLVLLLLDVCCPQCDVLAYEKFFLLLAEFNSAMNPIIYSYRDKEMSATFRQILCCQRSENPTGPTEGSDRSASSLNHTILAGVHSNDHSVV
Background: Activated receptors often draw arrestin, which recruitment assays turn into a signal.
By IC50 is commonly meant the concentration at which inhibition is half-maximal. Higher therefore signals a need for much substance. In turn, `Cc1ccc(NC(=O)C2(c3ccccc3C(C)C)CN(CCNC(=O)CO)C2)c(OC(F)F)n1` [Ex 11-87, N-(2-(difluoromethoxy)-6-methylpyridin-3-yl)-1-(2-(2-hydroxyacetamido)ethyl)-3-(2-isopropylphenyl)azetidine-3-carboxamide] registered a concentration for half-maximal inhibition (IC50) of 26 nM.
`Cc1ccc(NC(=O)C2(c3ccccc3C(C)C)CN(CC#N)C2)c(OC(F)F)n1` [Ex 11-88, 1-(cyanomethyl)-N-(2-(difluoromethoxy)-6-methylpyridin-3-yl)-3-(2-isopropylphenyl)azetidine-3-carboxamide] showed an IC50 of 6 nM.
Take `Cc1ccc(NC(=O)C2(c3ccccc3C(C)C)CN(CC3(CO)COC3)C2)c(OC(F)F)n1` [Ex 11-89, N-(2-(difluoromethoxy)-6-methylpyridin-3-yl)-1-((3-(hydroxymethyl)oxetan-3-yl)methyl)-3-(2-isopropylphenyl)azetidine-3-carboxamide]: it took 73 nM to reach half-maximal inhibition (IC50).
Then `COC(=O)C1(CN2CC(C(=O)Nc3ccc(C)nc3OC(F)F)(c3ccccc3C(C)C)C2)COC1` [Ex 11-90, methyl 3-((3-((2-(difluoromethoxy)-6-methylpyridin-3-yl)carbamoyl)-3-(2-isopropylphenyl)azetidin-1-yl)methyl)oxetane-3-carboxylate], with 45 nM.
Under `Cc1ccc(NC(=O)C2(c3ccccc3C(C)C)CN(CC3(C(=O)O)COC3)C2)c(OC(F)F)n1` [Ex 11-91, 3-((3-((2-(difluoromethoxy)-6-methylpyridin-3-yl)carbamoyl)-3-(2-isopropylphenyl)azetidin-1-yl)methyl)oxetane-3-carboxylic acid] stands 46 nM; under `CNC(=O)C(C)(C)CCN1CC(C(=O)Nc2ccc(C)nc2OC(F)F)(c2ccccc2C(C)C)C1` [Ex 11-92, N-(2-(difluoromethoxy)-6-methylpyridin-3-yl)-1-(3,3-dimethyl-4-(methylamino)-4-oxobutyl)-3-(2-isopropylphenyl)azetidine-3-carboxamide], 44 nM.
`Cc1ccc(NC(=O)C2(c3ccccc3C(C)C)CN(CCC(C)(C)C(N)=O)C2)c(OC(F)F)n1` [Ex 11-93, 1-(4-amino-3,3-dimethyl-4-oxobutyl)-N-(2-(difluoromethoxy)-6-methylpyridin-3-yl)-3-(2-isopropylphenyl)azetidine-3-carboxamide]: the IC50 was 65 nM.
Then `Cc1ccc(NC(=O)C2(c3ccccc3C(C)C)CN(CCCC(C)(C)N)C2)c(OC(F)F)n1` [Ex 11-94, 1-(4-amino-4-methylpentyl)-N-(2-(difluoromethoxy)-6-methylpyridin-3-yl)-3-(2-isopropylphenyl)azetidine-3-carboxamide], with 64 nM; and `Cc1ccc(NC(=O)C2(c3ccccc3C(C)C)CN(C(=O)CCCC#N)C2)c(OC(F)F)n1` [Ex 12-1, 1-(4-cyanobutanoyl)-N-(2-(difluoromethoxy)-6-methylpyridin-3-yl)-3-(2-isopropylphenyl)azetidine-3-carboxamide], with 15 nM.
For `CC(=O)N1CC(C(=O)Nc2ccc(C)nc2OC(F)F)(c2ccccc2C(C)C)C1` [Ex 12-2, 1-acetyl-N-(2-(difluoromethoxy)-6-methylpyridin-3-yl)-3-(2-isopropylphenyl)azetidine-3-carboxamide], half-maximal inhibition (IC50) was put at 10 nM.
Under `Cc1ccc(NC(=O)C2(c3ccccc3C(C)C)CN(C(=O)CS(=O)(=O)O)C2)c(OC(F)F)n1` [Ex 12-3, 2-(3-((2-(difluoromethoxy)-6-methylpyridin-3-yl)carbamoyl)-3-(2-isopropylphenyl)azetidin-1-yl)-2-oxoethane-1-sulfonic acid] stands 16 nM; under `Cc1ccc(NC(=O)C2(c3ccccc3C(C)C)CN(C(=O)CS(N)(=O)=O)C2)c(OC(F)F)n1` [Ex 12-4, N-(2-(difluoromethoxy)-6-methylpyridin-3-yl)-3-(2-isopropylphenyl)-1-(2-sulfamoylacetyl)azetidine-3-carboxamide], 20 nM; under `CNS(=O)(=O)CC(=O)N1CC(C(=O)Nc2ccc(C)nc2OC(F)F)(c2ccccc2C(C)C)C1` [Ex 12-6, N-(2-(difluoromethoxy)-6-methylpyridin-3-yl)-3-(2-isopropylphenyl)-1-(2-(N-methylsulfamoyl)acetyl)azetidine-3-carboxamide], 13 nM.
Then `Cc1ccc(NC(=O)C2(c3ccccc3C(C)C)CN(C(=O)CN(C)S(N)(=O)=O)C2)c(OC(F)F)n1` [Ex 12-8, N-(2-(difluoromethoxy)-6-methylpyridin-3-yl)-3-(2-isopropylphenyl)-1-(N-methyl-N-sulfamoylglycyl)azetidine-3-carboxamide], with 10 nM.
Then `Cc1ccc(NC(=O)C2(c3ccccc3C(C)C)CN(C(=O)CNC(N)=O)C2)c(OC(F)F)n1` [Ex 12-10, 1-(carbamoylglycyl)-N-(2-(difluoromethoxy)-6-methylpyridin-3-yl)-3-(2-isopropylphenyl)azetidine-3-carboxamide], with 155 nM; and `Cc1ccc(NC(=O)C2(c3ccccc3C(C)C)CN(C(=O)CCC(=O)C(F)(F)F)C2)c(OC(F)F)n1` [Ex 12-11, N-(2-(difluoromethoxy)-6-methylpyridin-3-yl)-3-(2-isopropylphenyl)-1-(5,5,5-trifluoro-4-oxopentanoyl)azetidine-3-carboxamide], with 7 nM; and `Cc1ccc(NC(=O)C2(c3ccccc3C(C)C)CCN(C(=O)CCC(=O)C(F)(F)F)CC2)c(OC(F)F)n1` [Ex 12-12, N-(2-(difluoromethoxy)-6-methylpyridin-3-yl)-4-(2-isopropylphenyl)-1-(5,5,5-trifluoro-4-oxopentanoyl)piperidine-4-carboxamide], with 7 nM.
On to `Cc1ccc(NC(=O)C2(c3ccccc3C(C)C)CN(C(=O)CC3(O)COC3)C2)c(OC(F)F)n1` [Ex 12-13, N-(2-(difluoromethoxy)-6-methylpyridin-3-yl)-1-(2-(3-hydroxyoxetan-3-yl)acetyl)-3-(2-isopropylphenyl)azetidine-3-carboxamide], for which the IC50 amounted to 17 nM.
In turn, `Cc1ccc(NC(=O)C2(c3ccccc3C(C)C)CCN(C(=O)CC3(O)COC3)CC2)c(OC(F)F)n1` [Ex 12-14, N-(2-(difluoromethoxy)-6-methylpyridin-3-yl)-1-(2-(3-hydroxyoxetan-3-yl)acetyl)-4-(2-isopropylphenyl)piperidine-4-carboxamide] registered an IC50 of 7 nM.
Under `Cc1ccc(NC(=O)C2(c3ccccc3C(C)C)CN(C(=O)c3cn[nH]c3)C2)c(OC(F)F)n1` [Ex 12-15, N-(2-(difluoromethoxy)-6-methylpyridin-3-yl)-3-(2-isopropylphenyl)-1-(1H-pyrazole-4-carbonyl)azetidine-3-carboxamide] stands 36 nM; under `Cc1ccc(NC(=O)C2(c3ccccc3C(C)C)CN(C(=O)c3cc(O)no3)C2)c(OC(F)F)n1` [Ex 12-16, N-(2-(difluoromethoxy)-6-methylpyridin-3-yl)-1-(3-hydroxyisoxazole-5-carbonyl)-3-(2-isopropylphenyl)azetidine-3-carboxamide], 9 nM; under `Cc1ccc(NC(=O)C2(c3ccccc3C(C)C)CN(C(=O)c3nnn[nH]3)C2)c(OC(F)F)n1` [Ex 12-18, N-(2-(difluoromethoxy)-6-methylpyridin-3-yl)-3-(2-isopropylphenyl)-1-(1H-tetrazole-5-carbonyl)azetidine-3-carboxamide], 25 nM.

The record behind these values is patent publication US12344597B2, “Alkoxy-substituted pyridinyl derivatives as LPA1 receptor antagonists and their use in the treatment of fibrosis” (IDORSIA PHARMACEUTICALS LTD, priority 2018, dated 2025).
